Data published in PubChem BioAssay AID248 (DTP/NCI, 2004).
Where “and” joins values, the source holds several entries; their conditions need not be identical. Equal entries are not always repeated. Inconclusive results and toxic doses are left out. Rule as the data show it: active = T/C of 150% or more; inactive = T/C below 125%.

Tested on: L1210 leukemia ip in BDF1 mice, survival T/C
Test: NCI In Vivo Anticancer Drug Screen. Data for tumor model L1210 Leukemia (intraperitoneal) in B6D2F1 (BDF1) mice
Details: higher = longer survival
Method in brief: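 Antitumor effect is assessed in tumor-bearing animals. Survival in the compound arm is compared with a vehicle-dosed control arm and expressed as their quotient.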

[1] = endpoint: mean survival time, dose: 50.0 mg/kg/injection, schedule: Q01DX001 (ip), vehicle: carboxymethylcellulose (CMC)
[2] = endpoint: mean survival time, dose: 100.0 mg/kg/injection, schedule: Q01DX001 (ip), vehicle: carboxymethylcellulose (CMC)
[3] = endpoint: mean survival time, dose: 200.0 mg/kg/injection, schedule: Q01DX001 (ip), vehicle: carboxymethylcellulose (CMC)
[4] = endpoint: mean survival time, dose: 400.0 mg/kg/injection, schedule: Q01DX001 (ip), vehicle: carboxymethylcellulose (CMC)
[5] = endpoint: mean survival time, dose: 100.0 mg/kg/injection, schedule: Q01DX009 (ip), vehicle: Klucel (hydroxypropylcellulose) (HPC)
[6] = endpoint: mean survival time, dose: 100.0 mg/kg/injection, schedule: Q04DX003 (ip), vehicle: Klucel (hydroxypropylcellulose) (HPC)
[7] = endpoint: mean survival time, dose: 200.0 mg/kg/injection, schedule: Q01DX009 (ip), vehicle: Klucel (hydroxypropylcellulose) (HPC)
[8] = endpoint: mean survival time, dose: 200.0 mg/kg/injection, schedule: Q04DX003 (ip), vehicle: Klucel (hydroxypropylcellulose) (HPC)
[9] = endpoint: mean survival time, dose: 400.0 mg/kg/injection, schedule: Q01DX009 (ip), vehicle: Klucel (hydroxypropylcellulose) (HPC)
[10] = endpoint: mean survival time, dose: 400.0 mg/kg/injection, schedule: Q04DX003 (ip), vehicle: Klucel (hydroxypropylcellulose) (HPC)
[11] = endpoint: mean survival time, dose: 100.0 mg/kg/injection, schedule: Q04DX003 (ip), vehicle: saline with Tween-80
[12] = endpoint: mean survival time, dose: 100.0 mg/kg/injection, schedule: Q01DX009 (ip), vehicle: other
[13] = endpoint: mean survival time, dose: 200.0 mg/kg/injection, schedule: Q01DX009 (ip), vehicle: other

Measured: T/C

CCC1=C(C[C@H]2NCCc3cc(OC)c(OC)cc32)C[C@H]2c3cc(OC)c(OC)cc3CCN2C1
inactive: endpoint: mean survival time, dose: 1.0 mg/kg/injection, schedule: Q01DX005 (ip), vehicle: saline 111 % of control | endpoint: mean survival time, dose: 1.0 mg/kg/injection, schedule: Q03HX024 (ip), vehicle: saline 111 % of control | endpoint: mean survival time, dose: 2.0 mg/kg/injection, schedule: Q01DX005 (ip), vehicle: saline 107 % of control and 108 % of control | endpoint: mean survival time, dose: 2.0 mg/kg/injection, schedule: Q01DX009 (ip), vehicle: saline 103 % of control | endpoint: mean survival time, dose: 2.0 mg/kg/injection, schedule: Q03HX016 (ip), vehicle: saline 111 % of control | endpoint: mean survival time, dose: 2.0 mg/kg/injection, schedule: Q04DX003 (ip), vehicle: saline 103 % of control and 104 % of control | endpoint: mean survival time, dose: 2.32 mg/kg/injection, schedule: Q01DX005 (ip), vehicle: saline 117 % of control | endpoint: mean survival time, dose: 4.0 mg/kg/injection, schedule: Q01DX005 (ip), vehicle: saline 119 % of control [middle of 4 runs] | endpoint: mean survival time, dose: 4.0 mg/kg/injection, schedule: Q01DX005 (sc), vehicle: saline 122 % of control | endpoint: mean survival time, dose: 4.0 mg/kg/injection, schedule: Q01DX009 (ip), vehicle: saline 103 % of control and 119 % of control | endpoint: mean survival time, dose: 4.0 mg/kg/injection, schedule: Q04DX003 (ip), vehicle: saline 107 % of control and 105 % of control and 108 % of control | endpoint: mean survival time, dose: 4.64 mg/kg/injection, schedule: Q01DX005 (ip), vehicle: saline 116 % of control | endpoint: mean survival time, dose: 4.64 mg/kg/injection, schedule: Q04DX003 (ip), vehicle: saline 106 % of control | endpoint: mean survival time, dose: 8.0 mg/kg/injection, schedule: Q01DX005 (oral), vehicle: saline 102 % of control | endpoint: mean survival time, dose: 8.0 mg/kg/injection, schedule: Q01DX005 (sc), vehicle: saline 119 % of control | endpoint: mean survival time, dose: 8.0 mg/kg/injection, schedule: Q01DX009 (ip), vehicle: saline 108 % of control | endpoint: mean survival time, dose: 8.0 mg/kg/injection, schedule: Q04DX003 (ip), vehicle: saline 111 % of control [middle of 4 runs] | endpoint: mean survival time, dose: 9.28 mg/kg/injection, schedule: Q04DX003 (ip), vehicle: saline 94 % of control | endpoint: mean survival time, dose: 16.0 mg/kg/injection, schedule: Q01DX005 (oral), vehicle: saline 116 % of control | endpoint: mean survival time, dose: 16.0 mg/kg/injection, schedule: Q01DX005 (sc), vehicle: saline 105 % of control | endpoint: mean survival time, dose: 16.0 mg/kg/injection, schedule: Q08DX002 (ip), vehicle: saline 120 % of control | endpoint: mean survival time, dose: 32.0 mg/kg/injection, schedule: Q01DX001 (sc), vehicle: saline 110 % of control | endpoint: mean survival time, dose: 37.12 mg/kg/injection, schedule: Q04DX003 (ip), vehicle: saline 108 % of control | endpoint: mean survival time, dose: 64.0 mg/kg/injection, schedule: Q01DX001 (sc), vehicle: saline 121 % of control | endpoint: mean survival time, dose: 64.0 mg/kg/injection, schedule: Q04DX003 (ip), vehicle: saline 102 % of control | endpoint: median survival time, dose: 4.0 mg/kg/injection, schedule: Q04DX003 (ip), vehicle: saline 102 % of control | endpoint: median survival time, dose: 8.0 mg/kg/injection, schedule: Q04DX003 (ip), vehicle: saline 107 % of control | endpoint: median survival time, dose: 16.0 mg/kg/injection, schedule: Q04DX003 (ip), vehicle: saline 110 % of control

O=c1[nH]c(-c2ccccc2)ncc1OCc1ccccc1
inactive: [1] 91 % of control | [2] 100 % of control | [3] 96 % of control | [4] 89 % of control

O=S(=O)(OCC1CO1)c1ccc(Br)cc1 (stereo not drawn)
inactive: endpoint: mean survival time, dose: 100.0 mg/kg/injection, schedule: Q01DX008 (ip), vehicle: Klucel (hydroxypropylcellulose) (HPC) 103 % of control | endpoint: mean survival time, dose: 200.0 mg/kg/injection, schedule: Q01DX008 (ip), vehicle: Klucel (hydroxypropylcellulose) (HPC) 92 % of control | endpoint: mean survival time, dose: 400.0 mg/kg/injection, schedule: Q01DX008 (ip), vehicle: Klucel (hydroxypropylcellulose) (HPC) 108 % of control

C1=C\CCC2(OCCO2)C2(CC/1)OCCO2
inactive: endpoint: mean survival time, dose: 50.0 mg/kg/injection, schedule: Q04DX003 (ip), vehicle: Klucel (hydroxypropylcellulose) (HPC) 100 % of control | endpoint: mean survival time, dose: 100.0 mg/kg/injection, schedule: Q01DX001 (ip), vehicle: Klucel (hydroxypropylcellulose) (HPC) 111 % of control | [5] 104 % of control | [6] 100 % of control | endpoint: mean survival time, dose: 200.0 mg/kg/injection, schedule: Q01DX001 (ip), vehicle: Klucel (hydroxypropylcellulose) (HPC) 109 % of control | [7] 98 % of control | [8] 97 % of control | endpoint: mean survival time, dose: 400.0 mg/kg/injection, schedule: Q01DX001 (ip), vehicle: Klucel (hydroxypropylcellulose) (HPC) 105 % of control | [9] 98 % of control | [10] 95 % of control

CC12C(C#N)=C(c3ccccc3)C=C(c3ccccc3)C1=C(c1ccccc1)c1ccccc12 (stereo not drawn)
inactive: [5] 100 % of control | [6] 89 % of control | [7] 100 % of control | [8] 100 % of control | [9] 94 % of control | [10] 94 % of control

O=C(COCC(=O)N/N=C/c1c(O)ccc2ccccc12)N/N=C/c1c(O)ccc2ccccc12
inactive: [5] 98 % of control | [7] 89 % of control | [9] 95 % of control

NNC(=O)OC12CC3CC(CC(C3)C1)C2
inactive: endpoint: mean survival time, dose: 25.0 mg/kg/injection, schedule: Q01DX009 (ip), vehicle: saline with Tween-80 90 % of control | endpoint: mean survival time, dose: 50.0 mg/kg/injection, schedule: Q01DX009 (ip), vehicle: saline with Tween-80 88 % of control | endpoint: mean survival time, dose: 100.0 mg/kg/injection, schedule: Q01DX009 (ip), vehicle: saline with Tween-80 98 % of control | [11] 94 % of control

CCCCCCOc1ccc(C=Nc2ccc(C(=O)OCC)cc2)cc1
inactive: endpoint: mean survival time, dose: 50.0 mg/kg/injection, schedule: Q01DX009 (ip), vehicle: Klucel (hydroxypropylcellulose) (HPC) 96 % of control | [5] 97 % of control | [7] 97 % of control

COc1ccc(OC)c(NC(=O)NNc2c([N+](=O)[O-])cc(C(F)(F)F)cc2[N+](=O)[O-])c1
inactive: [12] 97 % of control | [13] 89 % of control

CCCCS(=O)/C=C\S(=O)CCCC (stereo not drawn)
inactive: endpoint: mean survival time, dose: 100.0 mg/kg/injection, schedule: Q04DX002 (ip), vehicle: saline 117 % of control | endpoint: mean survival time, dose: 200.0 mg/kg/injection, schedule: Q04DX002 (ip), vehicle: saline 106 % of control

CCC1CN1P1(=O)OCC(CC)([N+](=O)[O-])CO1 (stereo not drawn)
inactive: [2] 90 % of control | [3] 101 % of control | [4] 97 % of control

C(=N\N1CCN(/N=C/c2cccc3ccccc23)CC1)/c1cccc2ccccc12
inactive: [2] 93 % of control | [3] 90 % of control | [4] 88 % of control

C(CCC1CCCC1)=C(CCCC1CCCC1)CCCC1CCCC1
inactive: endpoint: mean survival time, dose: 100.0 mg/kg/injection, schedule: Q01DX001 (ip), vehicle: saline with Tween-80 100 % of control | endpoint: mean survival time, dose: 200.0 mg/kg/injection, schedule: Q01DX001 (ip), vehicle: saline with Tween-80 94 % of control | endpoint: mean survival time, dose: 400.0 mg/kg/injection, schedule: Q01DX001 (ip), vehicle: saline with Tween-80 91 % of control

O=C(O)C1CCC=CCC1
inactive: endpoint: mean survival time, dose: 50.0 mg/kg/injection, schedule: Q01DX009 (ip), vehicle: other 91 % of control | [12] 96 % of control | [13] 98 % of control

O=c1[nH]c(=O)c2ncsc2[nH]1
inactive: [11] 103 % of control | endpoint: mean survival time, dose: 200.0 mg/kg/injection, schedule: Q04DX003 (ip), vehicle: saline with Tween-80 110 % of control

CCCCC(C)(O)CCC (stereo not drawn)
inactive: [1] 104 % of control | [2] 101 % of control | [3] 98 % of control | [4] 89 % of control
